# Assay results published in ChEMBL document CHEMBL1201862, “PubChem BioAssay data set” (2004).
# Activity calls are given as the source filed them.
# Tests used:
# [1] = target: T1, Replicative DNA helicase DnaB (Mycobacterium tuberculosis, UniProt P9WMR3); experiment: DnaB intein splicing inhibitors, dose response, biochemical, cell-free fluorescence (AID 449749); format: functional
# T1 sequence (P9WMR3 whole entry): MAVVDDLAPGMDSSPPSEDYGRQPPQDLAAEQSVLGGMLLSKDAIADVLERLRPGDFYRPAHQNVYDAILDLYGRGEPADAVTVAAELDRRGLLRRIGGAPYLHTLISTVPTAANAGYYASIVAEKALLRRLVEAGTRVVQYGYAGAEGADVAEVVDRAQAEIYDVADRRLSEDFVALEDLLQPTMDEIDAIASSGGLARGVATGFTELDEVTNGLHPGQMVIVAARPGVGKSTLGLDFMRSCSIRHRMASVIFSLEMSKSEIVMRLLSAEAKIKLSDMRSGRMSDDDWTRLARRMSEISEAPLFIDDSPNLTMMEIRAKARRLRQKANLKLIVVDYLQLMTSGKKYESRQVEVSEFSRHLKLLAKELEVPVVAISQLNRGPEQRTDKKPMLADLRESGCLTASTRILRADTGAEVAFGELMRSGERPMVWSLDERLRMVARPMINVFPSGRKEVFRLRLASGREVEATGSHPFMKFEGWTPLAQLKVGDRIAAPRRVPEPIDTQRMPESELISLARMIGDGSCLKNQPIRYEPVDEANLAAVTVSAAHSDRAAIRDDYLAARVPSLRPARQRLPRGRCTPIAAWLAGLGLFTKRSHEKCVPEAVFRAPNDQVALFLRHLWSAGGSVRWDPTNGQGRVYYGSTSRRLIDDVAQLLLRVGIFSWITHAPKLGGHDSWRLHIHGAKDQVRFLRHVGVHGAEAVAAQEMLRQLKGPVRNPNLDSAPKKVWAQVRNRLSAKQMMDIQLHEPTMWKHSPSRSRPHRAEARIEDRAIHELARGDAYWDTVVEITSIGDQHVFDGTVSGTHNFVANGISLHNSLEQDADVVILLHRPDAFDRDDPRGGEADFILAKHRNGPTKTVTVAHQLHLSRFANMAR
# Protein RecA = target: T2, Protein RecA (Mycobacterium tuberculosis, UniProt P9WHJ3); experiment: Fluorescence Cell-Free Homogeneous Dose Retest to Identify Inhibitors of RecA-Intein Splicing Activity. [Related pubchem assays (depositor defined):AID2097, AID2223, AID489010, AID492950]; format: functional
# T2 sequence (P9WHJ3 whole entry): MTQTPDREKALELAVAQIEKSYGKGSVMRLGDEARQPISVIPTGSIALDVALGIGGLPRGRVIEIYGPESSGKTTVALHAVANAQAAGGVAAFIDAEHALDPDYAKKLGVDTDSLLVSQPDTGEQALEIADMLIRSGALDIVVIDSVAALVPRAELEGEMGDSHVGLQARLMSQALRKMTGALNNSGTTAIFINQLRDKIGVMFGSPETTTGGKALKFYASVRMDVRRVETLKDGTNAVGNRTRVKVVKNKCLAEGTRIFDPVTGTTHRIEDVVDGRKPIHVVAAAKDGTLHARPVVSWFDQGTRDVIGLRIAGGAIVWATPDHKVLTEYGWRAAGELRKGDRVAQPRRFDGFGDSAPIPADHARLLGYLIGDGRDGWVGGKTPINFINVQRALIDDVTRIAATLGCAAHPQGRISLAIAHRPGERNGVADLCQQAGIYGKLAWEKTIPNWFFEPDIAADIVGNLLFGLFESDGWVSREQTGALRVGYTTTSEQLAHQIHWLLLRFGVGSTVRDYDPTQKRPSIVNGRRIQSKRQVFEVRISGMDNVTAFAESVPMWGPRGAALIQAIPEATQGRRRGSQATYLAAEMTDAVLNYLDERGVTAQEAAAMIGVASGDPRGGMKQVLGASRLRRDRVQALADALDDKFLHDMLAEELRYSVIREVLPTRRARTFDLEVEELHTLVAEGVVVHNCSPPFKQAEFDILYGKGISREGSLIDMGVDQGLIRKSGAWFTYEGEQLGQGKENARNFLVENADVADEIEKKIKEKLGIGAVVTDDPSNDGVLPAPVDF
# [2] = HEp-2 cell cytotoxicity, dose response, cytotoxicity control for RSV inhibitor project, HTS (AID 2410); format: functional; conditions: human respiratory syncytial virus
# [3] = Shn3 3'UTR reporter inhibitors, dose response, cell-based, Clone20 osteoblasts, firefly luciferase, cherry-picked (AID 624132); format: functional;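 further: firefly luciferase luminescence from reporter carrying the Shn3 3'UTR in osteoblasts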
# [4] = control 3'UTR Renilla luciferase suppression, dose response, counter-screen for Shn3 inhibitor project, cell-based, Clone20-Shn3RL, cherry-picked (AID 624133); format: functional
# [5] = tested on: Streptococcus sp. 'group A'; experiment: growth inhibition of control SK(-) GAS strain, dose response, counter-screen for streptokinase expression inhibitor project, luminescence, kanamycin, BacTiterGlo, confirmation (AID 1900); format: functional, organism-based
# Streptococcus = experiment: Group A Streptococcus viability loss, dose response, counter-screen for streptokinase expression inhibitor project, luminescence, BacTiterGlo (AID 1915); format: functional, organism-based;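 further: potency for reduction of bacterial viability or growth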
# Streptokinase A = target: T3, Streptokinase A (Streptococcus pyogenes serotype M1, UniProt P10520); experiment: S. pyogenes streptokinase expression inhibitors, potency, dose response, plasminogen activation absorbance, OD405 (AID 1914); format: functional, Streptococcus pyogenes M1 GAS;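 further: secreted streptokinase activity via plasminogen activation per viability signal from cell pellet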
# T3 sequence (P10520 whole entry): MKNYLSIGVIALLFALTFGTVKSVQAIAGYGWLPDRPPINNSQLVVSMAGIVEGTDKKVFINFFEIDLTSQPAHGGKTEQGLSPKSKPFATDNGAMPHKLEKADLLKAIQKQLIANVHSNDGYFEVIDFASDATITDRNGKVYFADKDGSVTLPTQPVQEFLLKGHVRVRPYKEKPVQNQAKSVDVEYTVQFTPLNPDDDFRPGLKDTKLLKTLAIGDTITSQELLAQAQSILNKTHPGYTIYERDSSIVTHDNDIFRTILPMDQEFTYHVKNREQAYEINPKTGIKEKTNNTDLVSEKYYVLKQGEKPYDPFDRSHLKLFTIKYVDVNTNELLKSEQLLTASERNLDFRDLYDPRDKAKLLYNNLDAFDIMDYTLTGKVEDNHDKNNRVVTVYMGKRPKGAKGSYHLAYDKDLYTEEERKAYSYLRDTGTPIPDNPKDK
# INS1 = experiment: beta cell apoptosis inhibitors, cytokine rescue, dose response, luminescence, retest (AID 449756); format: functional, cell-based; conditions: Rattus norvegicus;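 further: cell death triggered by IL-1 beta plus TNF-alpha plus IFN-gamma mixture; protective hits raise ATP signal compared with cytokine alone wells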
# Protein skinhead-1 = target: T4, Protein skinhead-1 (Caenorhabditis elegans, UniProt P34707); format: functional
# T4 sequence (P34707 whole entry): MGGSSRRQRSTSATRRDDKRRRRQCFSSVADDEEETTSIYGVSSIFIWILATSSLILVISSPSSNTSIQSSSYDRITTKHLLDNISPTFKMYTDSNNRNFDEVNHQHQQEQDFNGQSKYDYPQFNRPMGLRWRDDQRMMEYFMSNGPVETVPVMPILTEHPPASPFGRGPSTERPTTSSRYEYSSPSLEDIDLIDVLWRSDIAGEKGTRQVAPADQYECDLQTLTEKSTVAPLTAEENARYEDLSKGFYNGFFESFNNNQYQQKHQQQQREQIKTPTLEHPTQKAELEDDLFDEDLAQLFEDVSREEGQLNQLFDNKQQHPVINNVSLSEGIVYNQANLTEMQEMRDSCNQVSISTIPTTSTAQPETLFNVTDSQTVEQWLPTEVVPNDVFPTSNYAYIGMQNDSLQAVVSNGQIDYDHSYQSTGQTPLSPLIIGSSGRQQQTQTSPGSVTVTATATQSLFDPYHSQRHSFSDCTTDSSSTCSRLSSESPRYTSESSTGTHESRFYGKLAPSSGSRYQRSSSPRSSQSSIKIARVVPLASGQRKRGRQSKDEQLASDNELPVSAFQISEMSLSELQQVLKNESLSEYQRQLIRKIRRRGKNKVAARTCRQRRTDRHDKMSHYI
# H4 = experiment: Luminescence Cell-Based Dose Response HTS to Identify Activators of 5'UTR Stem-Loop Driven Prion Protein mRNA Translation in H4 Neuroglioblastoma Cells. [Related pubchem assays: 1829 (Project Summary), 1814 (Primary HTS)]; format: functional; conditions: Homo sapiens
# [6] = Luminescence Cell-Based Dose Response HTS to Identify Activators of Luciferase Translation or Activity in H4 […] Cells. [Related pubchem assays: 1829 (Project Summary), 1814 (Primary HTS)]; format: functional
smiles,measurement,setting,value
O=C(NC1CCCC1)C(c1ccc(F)cc1)N(Cc1ccc(F)cc1)C(=O)CCl (stereo unspecified),AC50,[1],4.67 µM (active)
same,EC50,Protein RecA,0.557 µM (active)
CC(=O)C(C)Oc1ccc2c3c(c(=O)oc2c1)CCCC3 (stereo unspecified),CC50,[2],31.8 µM (active)
O=C(Nc1ccc(S(=O)(=O)N2CCCCC2)cc1)C1CC(=O)N(c2ccc(Cl)cc2)C1 (stereo unspecified),CC50,[2],19.9 µM (active)
COc1cccc(NC(=O)Nc2nnc(N3C(C)CCCC3C)s2)c1 (stereo unspecified),CC50,[2],> 50 µM (active)
CCOC(=O)C1CCN(C(=O)c2sc3nc(C)nc(N4CCC(C)CC4)c3c2C)CC1,AC50,[3],5.26 µM (active)
same,AC50,[4],9.01 µM (active)
O=C(Nc1ccc2ccccc2c1)c1ccc(NS(=O)(=O)c2ccc(Br)s2)cc1,EC50,[5],2 µM (active)
same,EC50,Streptococcus,5.03 µM (active)
same,EC50,Streptokinase A,> 150 µM (not active)
same,CC50,[2],> 50 µM (active)
COc1ccc(C2=NN(c3nc(C)cc(C)n3)C(=O)C2)cc1,AC50,[1],4.53 µM (active)
same,EC50,Protein RecA,2.81 µM (active)
N#Cc1c(Nc2ccccc2)sc(C(=O)c2ccc(F)cc2)c1N,AC50,INS1,20.9 µM (active)
Cc1c(NC(=O)/C(C#N)=C/c2ccc(-c3ccc(Cl)c(Cl)c3)o2)c(=O)n(-c2ccccc2)n1C,IC50,Protein skinhead-1,> 100 µM (inactive)
same,CC50,[2],13.3 µM (active)
Cc1ccccc1C1CCCN(C(=O)c2cc(COc3c(F)cccc3F)on2)C1 (stereo unspecified),CC50,[2],21.6 µM (active)
O=[N+]([O-])c1cccc(-c2c(-c3ccccc3)ncc3cc(F)ccc23)c1,IC50,Protein skinhead-1,88.7 µM (inactive)
Clc1ccccc1-c1ncc(-c2ccccc2)o1,IC50,Protein skinhead-1,37.3 µM (active)
C[C@@H]1CC=C[C@H]2[C@H]1C(=O)N(Cc1ccccc1)[C@H]2c1ccc(C(F)(F)F)cc1,AC50,[1],22.3 µM (active)
same,EC50,Protein RecA,87 µM (active)
COCCn1cnnc1SCC(=O)Nc1cccc(S(=O)(=O)N2CCCCC2)c1,IC50,Protein skinhead-1,> 100 µM (inactive)
CC1(c2ccccc2)ON(c2ccccc2C(F)(F)F)C1=O (stereo unspecified),CC50,[2],49.9 µM (active)
Cc1n[nH]c2c1C(CCc1ccccc1)C(C#N)=C(N)O2 (stereo unspecified),AC50,[1],24.9 µM (active)
same,EC50,Protein RecA,6.58 µM (active)
N#Cc1cc2c(nc1SCC(=O)Nc1sc3c(c1C#N)CCC3)CCCC2,EC50,H4,16 µM (active)
same,EC50,[6],> 120 µM (not active)
Cc1ccc2sc3ccc(NC(=O)c4ccccc4Cl)cc3c(=O)c2c1,CC50,[2],15.9 µM (active)
Cc1ccc(OCCn2cc(C#N)c3ccccc32)cc1,CC50,[2],28.8 µM (active)
Cc1ccccc1Oc1cc(NC(=O)CCCn2nc(C)c([N+](=O)[O-])c2C)cc([N+](=O)[O-])c1,AC50,INS1,6.96 µM (active)
COc1ccc2ccc3c(c2c1)N=C[C@]1(O3)N(C)c2ccccc2C1(C)C,EC50,[5],35.4 µM (active)
same,EC50,Streptococcus,> 150 µM (not active)
same,EC50,Streptokinase A,3.17 µM (active)
same,AC50,[1],> 380 µM (inactive)
same,EC50,Protein RecA,3.66 µM (active)
CC1CCc2c(sc3nc(CSc4nc[nH]n4)nc(O)c23)C1 (stereo unspecified),CC50,[2],24.2 µM (active)
O=c1cc(C2CCNCC2)[nH][nH]1,AC50,[1],3.73 µM (active)
same,EC50,Protein RecA,1.41 µM (active)
COc1ccc(Br)cc1CN(C)CC(O)COc1ccc(Br)cc1 (stereo unspecified),IC50,Protein skinhead-1,> 100 µM (inactive)
O=C1/C(=C/c2cccs2)CCc2ccccc21,IC50,Protein skinhead-1,18.6 µM (active)
CCOc1ccc2cc(/C=C/C(=O)c3ccco3)c(Cl)nc2c1,CC50,[2],47.7 µM (active)
CCCCOc1ccc(C(=O)NC)cc1,IC50,Protein skinhead-1,> 100 µM (inactive)
COc1ccc(-n2c(=O)c3ccccc3c3ccccc3c2=O)cc1,AC50,[1],10.1 µM (active)
same,EC50,Protein RecA,23.3 µM (active)
Cc1cccc(C(C)(C)C)c1OCCN1CCCC1,AC50,[3],34.2 µM (active)
same,AC50,[4],9.87 µM (active)
O=c1c2ccccc2oc2ccc(Oc3ccccc3)cc12,IC50,Protein skinhead-1,22.5 µM (active)
Cc1ccc(NC2=NC(=O)/C(=C\c3ccc(C)s3)S2)cc1,IC50,Protein skinhead-1,> 100 µM (inactive)
COc1ccccc1N(Cc1ccccc1)S(=O)(=O)c1cccc(C(=O)Nc2ccccn2)c1,CC50,[2],11.6 µM (active)
Cc1c(C(C)(C)O)[nH]c2ccc(C(F)(F)F)cc12,CC50,[2],33.8 µM (active)
O=C(CCN1C(=O)/C(=C/c2cccs2)SC1=S)Nc1cccc(O)c1,AC50,[1],1.64 µM (active)
same,EC50,Protein RecA,125 µM (active)
N#CC1(Nc2ccc(-c3ccc(Cl)cc3)cc2)CCCC1,IC50,Protein skinhead-1,26.1 µM (active)
C=CCC1CCCCC1=C(C#N)c1ccccc1 (stereo unspecified),IC50,Protein skinhead-1,> 100 µM (inactive)
Cc1[nH]n(C)c(=O)c1C(=O)c1c(-c2ccccc2Cl)noc1C,AC50,[1],6.51 µM (active)
same,EC50,Protein RecA,2.61 µM (active)
COc1cccc(/C=N/NC(=O)c2cc(-c3ccccn3)nc3ccccc23)c1O,AC50,INS1,1.8 µM (active)
O=c1sc(/C=N/Nc2ccccc2)c(Cl)n1Cc1ccccc1,EC50,H4,21.4 µM (active)
same,EC50,[6],> 120 µM (not active)
Cn1cc(/C=N\NC(=O)c2cccs2)c2ccccc21,EC50,H4,37.7 µM (active)
same,EC50,[6],50.3 µM (active)
